We go through nine compounds from US20220331348A1, “METHOD OF PREPARING PENTACYCLIC TRITERPENOID SAPONINS AND DRUG COMPOSITION” (CHINA PHARMACEUTICAL UNIVERSITY, priority 2019, published 2022).

For experiment [1], the system named is AMPK in Huh-7 cells. Description: Activation activity on AMPK in Huh-7 cells (Western Blot). The settings on record: 12 h, relative to DMSO = 1. In kind it is cell-based. The method, then: The activation activity of a compound on AMPK in Huh-7 cells was detected by using Western Blot.
Cell culture conditions: Huh-7 cells were cultured in an incubator with 5% CO2 at 37° C. in DMEM complete medium (containing 10% fetal calf serum and 1% streptomycin/penicillin).
Antibody: anti-AMPK (CST, 2532S); anti-pAMPK (CST, 2535S).
Western Blot experiment: the influence of the compound on phosphorylation level of the AMPK in the Huh-7 cells was detected: cells with more than 90% cells alive were taken for the experiment. In a 12-well plate, the Huh-7 cells were plated in the plate at 250000 cells per well, the plate was placed in the incubator with 5% CO2 at 37° C. for culture, an original culture medium was discarded after 12 h, a complete medium containing the pentacyclic triterpenoid saponin was added, a final concentration of subject pentacyclic triterpenoid saponin was set to be 10 μM, and an administration time was set to be 12 h. A positive control compound employs AICAR (100 μM), metformin (70 μM) or A-769662 (100 μM). Then proteins were extracted for Western Blot detection.
Experimental result: a Western Blot experimental result was subjected to gray scale scanning, a p-AMPK/AMPK ratio of negative control DMSO was defined as 1, and a p-AMPK/AMPK ratio of the subject compound was a relative ratio of a negative control group. The larger the numerical value was, the stronger the activation activity of the AMPK of the compound was.

The test system of experiment [2] is ulcerative colitis model mice induced by DSS. Description: Dextran sulphate sodium salt (DSS) induced ulcerative colitis model mice. In kind it is in vivo, mouse. The settings on record: DSS-induced mice; dose not given; vs model group. The procedure: C57BL/6 male mice with 6-8 weeks old were selected; a control group was fed with purified water; and a model group, a treatment group and a positive control group were fed with purified water containing 2% dextran sulphate sodium salt (DSS) (36000-50000 M.Wt) for 7 days and then with the purified water for 3 days, and drug intervention was conducted at the same time. The mice in the control group and the model group were orally administered with carboxymethyl cellulose sodium as a placebo, the mice in the treatment group were orally administered with the ziyuglycoside II (purchased from Shanghai Boka Chemistry Technology Co., Ltd) (with a dosage of 5 mg/kg), and the mice in the positive control group were orally administered with 5-aminosalicylic acid as a clinical drug (5-ASA, purchased from Shanghai Sangon Biological Engineering Co., Ltd) (with a dosage of 100 mg/kg). In the administration process, weight changes, feces characters and hematochezia conditions of the mice were observed and recorded every day and were scored, and disease activity indexes were calculated (Disease activity index, DAI).
A scoring rule and a calculation method were as follows: DAT=(weight score+diarrhea score+occult blood score)/3, wherein weight score: 0 (weight gained or unchanged), 1 (weight lost by 1-5%), 2 (weight lost by 6-10%), 3 (weight lost by 11-15%), 4 (weight lost by 15% or above); diarrhea score: 0 (normal feces), 2 (soft feces), 4 (feces sticking anuses or diarrhea); and occult blood score: 0 (negative occult blood), 2 (positive occult blood), and 4 (visible bleeding). Comparing differences in DAI of various groups, it can be known that the ziyuglycoside II has significant prevention and treatment effects on ulcerative colitis of the mice modeled by the dextran sulphate sodium salt (DSS).
The above mice were sacrificed by cervical dislocation at day 11, colon tissues were harvested, lengths of the colon tissues were measured for statistical summary, and differences in colon length of various groups were compared, from which, the ziyuglycoside II has significant prevention and treatment effect on the ulcerative colitis model mice.
Middle segments, with lengths of about 1 cm, of the colon tissues of the above mice were selected, soaked in a formalin solution for fixing overnight, embedded with paraffin and sliced, and the slices were subjected to HE staining. […] Particularly, compared with the positive drug group, the ziyuglycoside II has the advantage of maintaining a thickness of a muscular layer.
10 mg of proximal rectum segments of the colon tissues of the above mice were selected, PBS was added for homogenization, and centrifugation was conducted for taking a supernate. The supernate was subjected to ELISA detection, and protein quantification was conducted for inflammatory factors TNF-α and IL-lb.
10 mg of colon tissues of the above mice were selected for detection of ROS therein.
When the ulcerative colitis occurs, the inflammatory factors may destruct tight junction between intestinal tracts, and destruction of the tight junction enables functions of mucosal barriers to be lost and accelerates development of the diseases. 5 mg of colon tissues of the above mice were selected for qPCR analysis. […] This hints that the ziyuglycoside II further has the efficacy of increasing the expression level of the tight junction and then protecting a structure of each colon. […] Therefore, the ziyuglycoside II is expected to be useful for preparing the drug for preventing or treating the inflammatory bowel diseases such as the ulcerative colitis.

Experiment [3] has as its system TNBS modeled Crohn's disease model mice. Kind of experiment: 2,4,6-trinitrobenzene sulfonic acid (TNBS) modeled Crohn's disease model mice. The format is in vivo, mouse. Conditions: dose not given. The procedure: C57BL/6 male mice with 6-8 weeks old were selected and randomly divided into a control group, a mode group, a treatment group and a positive control group. Expect for the control group, after the mice in the rest groups anesthetized with isoflurane, hoses were carefully inserted into colons of the mice from anuses, and […] of 1.5% 2,4,6-trinitrobenzene sulfonic acid (TNBS) was slowly injected. Before the hoses were pulled out, the mice were placed upside down for 1 min. First intragastric administration was conducted at the day of enema treatment, the mice in the control group and the model group were orally administered with carboxymethyl cellulose sodium as a placebo, the mice in the treatment group were orally administered with the ziyuglycoside II (purchased from Shanghai Boka Chemistry Technology Co., Ltd) (with a dosage of 5 mg/kg), and the mice in the positive drug group were orally administered with 5-aminosalicylic acid as a clinical drug (5-ASA, purchased from Shanghai Sangon Biological Engineering Co., Ltd) (with a dosage of 100 mg/kg). Administration was continuously conducted for 7 days. In the administration process, the states of the mice were observed every day, and weight changes of the mice were recorded.
Differences in weight change of the mice in various groups were compared, from which, ziyuglycoside II has the treatment effect on the 2, 4, 6-trinitrobenzene sulfonic acid (TNBS) modeled Crohn's disease model mice.
The above mice were sacrificed by cervical dislocation at day 8, colon tissues were harvested, lengths of the colon tissues were measured for statistical summary, and differences in colon length of various groups were compared, from which, the ziyuglycoside II has significant treatment effect on the Crohn's disease model mice. […] 10 mg of proximal rectum segments of the colon tissues of the above mice were selected, PBS was added for homogenization, and centrifugation was conducted for taking a supernate. The supernate was subjected to ELISA detection, and protein quantification was conducted for inflammatory factors TNF- and IL-1. […] Myeloperoxidase (MPO) is an enzyme specific to neutrophils, and the amount of the neutrophils in the intestinal tracts may be reflected by detecting the MPO level. 5 mg of proximal rectum segments of the colon tissues of the above mice were selected, PBS was added for homogenization, and the content of the MPO in a homogenate was detected with a MPO kit (purchased from Nanjing Jiancheng Bioengineering Institute). […] Therefore, the ziyuglycoside II is expected to be useful for preparing the drug for preventing or treating the inflammatory bowel diseases such as the Crohn's disease.

`NC(=O)c1ncn([C@@H]2O[C@H](CO)[C@@H](O)[C@H]2O)c1N` [AICAR, reference compound]: the pAMPK/AMPK ratio in experiment [1] (positive control 100 μM) was 1.47.

On to `CC1(C)CC[C@]2(C(=O)O)CC[C@]3(C)C(=CCC4[C@@]5(C)CC[C@H](O[C@@H]6OC[C@H](O)[C@H](O)[C@H]6O)C(C)(C)[C@@H]5CC[C@]43C)[C@@H]2C1` (stereo partly shown) [(XIV), asperosaponin C], for which the pAMPK/AMPK ratio in experiment [1] (10 μM, Western Blot gray scale) was 2.23.

Consider `N#Cc1c(O)c2c(-c3ccc(-c4ccccc4O)cc3)csc2[nH]c1=O` [Compound A-769662, A-769662, reference compound], for which the pAMPK/AMPK ratio in experiment [1] (positive control 100 μM) was found to be 2.59.

As to `CC1(C)CC[C@]2(C(=O)O)CC[C@]3(C)C(=CC[C@@H]4[C@@]5(C)CC[C@H](O[C@@H]6O[C@H](CO)[C@@H](O)[C@H](O)[C@H]6O)C(C)(C)C5CC[C@]43C)[C@H]2C1` (stereo partly shown) [(XVI), hederin A2], the pAMPK/AMPK ratio in experiment [1] (10 μM, Western Blot gray scale) is reported as 2.05.

With `C[C@@H]1OC(O[C@H]2[C@H](O[C@H]3CC[C@]4(C)[C@H]5CC=C6[C@@H]7CC(C)(C)CC[C@]7(C(=O)O)CC[C@@]6(C)[C@]5(C)CC[C@H]4C3(C)C)OC[C@H](O)[C@@H]2O)[C@H](O)[C@H](O)[C@H]1O` (stereo partly drawn) [(XV), β-hederin], the pAMPK/AMPK ratio in experiment [1] (10 μM, Western Blot gray scale) came out at 2.87.

As for `CC1(C)CC[C@]2(C(=O)O)CC[C@]3(C)C(=CCC4[C@@]5(C)CC[C@H](O[C@@H]6O[C@H](C(=O)O)[C@@H](O)[C@H](O)[C@H]6O)C(C)(C)[C@@H]5CC[C@]43C)[C@@H]2C1` (stereo partly shown) [(III), calunduloside E], the pAMPK/AMPK ratio in experiment [1] (10 μM, Western Blot gray scale) came to 1.54.

As for reinioside C [(IX)], the “DAI scores of the treatment group” value in experiment [2] is given as “obviously lower than those of the model group”. Further, in experiment [3], the “colon length of the treatment group compared with the control group” value is recorded as “nearly no difference”. Moreover, in experiment [3] (vs model group), the “expression level of inflammatory factor IL-1β” value was “significantly lower than those of the model group” and the “expression level of inflammatory factor TNF-α” value is recorded as “significantly lower than those of the model group”. In experiment [1] (10 μM, Western Blot gray scale), the pAMPK/AMPK ratio is reported as 1.88.

Consider `CC1(C)CC[C@]2(C(=O)O)CC[C@]3(C)C(=CC[C@@H]4[C@@]5(C)CC[C@H](O[C@@H]6O[C@H](C(=O)O)[C@@H](O)[C@H](O[C@@H]7OC[C@@H](O)[C@H](O)[C@H]7O)[C@H]6O)C(C)(C)[C@@H]5CC[C@]43C)[C@@H]2C1` [(IV), kochioside Ic], for which, in experiment [1] (10 μM, Western Blot gray scale), the pAMPK/AMPK ratio amounted to 1.75.

In the case of `CN(C)C(=N)N=C(N)N` [Metformin, reference compound], the pAMPK/AMPK ratio in experiment [1] (positive control 70 μM) was 1.22.
